Results reported in ChEMBL document CHEMBL1201862, “PubChem BioAssay data set” (2004).
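All cell lines were grown in 96-well plates and treated with compound for 48 hours. The concentration for 50% growth inhibition is given as GI50.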 The source made the active and inactive calls. No stated cut-off is given here; in the data, active = GI50 up to about 1.1 µM and inactive = higher.

Columns and labels:
Test in all cases: inhibition of tumour cell growth, NCI panel, 48 h
786-0 = tested on: 786-0
A498 = tested on: A498
A549 = tested on: A549
ACHN = tested on: ACHN
CAKI-1 = tested on: CAKI-1
CCRF-CEM = tested on: CCRF-CEM
EKVX = tested on: EKVX
HCC 2998 = tested on: HCC 2998
HCT-116 = tested on: HCT-116
HCT-15 = tested on: HCT-15
HL-60 = tested on: HL-60
HOP-62 = tested on: HOP-62
HOP-92 = tested on: HOP-92
HT-29 = tested on: HT-29
IGROV-1 = tested on: IGROV-1
K562 = tested on: K562
KM-20L2 = tested on: KM-20L2
KM12 = tested on: KM12
LOX IMVI = tested on: LOX IMVI
M14 = tested on: M14
MOLT-4 = tested on: MOLT-4
NCI-H226 = tested on: NCI-H226
NCI-H23 = tested on: NCI-H23
NCI-H460 = tested on: NCI-H460
NCI-H522 = tested on: NCI-H522
OVCAR-3 = tested on: OVCAR-3
OVCAR-5 = tested on: OVCAR-5
OVCAR-8 = tested on: OVCAR-8
RXF 393 = tested on: RXF 393
RXF 631 = tested on: RXF 631
SF-268 = tested on: SF-268
SF-295 = tested on: SF-295
SF-539 = tested on: SF-539
SK-MEL-28 = tested on: SK-MEL-28
SK-MEL-2 = tested on: SK-MEL-2
SK-OV-3 = tested on: SK-OV-3
SN12C = tested on: SN12C
SNB-19 = tested on: SNB-19
SNB-78 = tested on: SNB-78
SR = tested on: SR
SW-620 = tested on: SW-620
TK-10 = tested on: TK-10
U-251 = tested on: U-251
UACC-257 = tested on: UACC-257
UACC-62 = tested on: UACC-62
UO-31 = tested on: UO-31
COLO 205 = tested on: COLO 205
DLD-1 = tested on: DLD-1
DMS-114 = tested on: DMS-114
DMS-273 = tested on: DMS-273
HOP-18 = tested on: HOP-18
LXFL 529 = tested on: LXFL 529
M19-MEL = tested on: M19-MEL
Malme-3M = tested on: Malme-3M
RPMI-8226 = tested on: RPMI-8226
SK-MEL-5 = tested on: SK-MEL-5
SNB-75 = tested on: SNB-75
XF498 = tested on: XF498
OVCAR-4 = tested on: OVCAR-4
BT-549 = tested on: BT-549
DU-145 = tested on: DU-145
Hs-578T = tested on: Hs-578T
MCF7 = tested on: MCF7
MDA-MB-231 = tested on: MDA-MB-231
MDA-MB-435 = tested on: MDA-MB-435
MDA-N = tested on: MDA-N
NCI/ADR-RES = tested on: NCI/ADR-RES
PC-3 = tested on: PC-3
T47D = tested on: T47D

Measured: GI50

c1ccc(N/N=C2\NN=C(c3ccccc3)CS2)cc1
4.59 µM: HCT-15
inactive: 786-0 15.7 µM | A498 10.8 µM | A549 4.78 µM | ACHN 4.38 µM | CAKI-1 2.55 µM | CCRF-CEM 3.17 µM | EKVX 12.4 µM | HCC 2998 4.74 µM | HCT-116 3.8 µM | HL-60 3.58 µM | HOP-62 22.3 µM | HOP-92 11.3 µM | HT-29 6.89 µM | IGROV-1 15 µM | K562 3.34 µM | KM-20L2 6.46 µM | KM12 13.2 µM | LOX IMVI 4.39 µM | M14 6.73 µM | MOLT-4 3.66 µM | NCI-H226 16 µM | NCI-H23 17.9 µM | NCI-H460 14 µM | NCI-H522 3.49 µM | OVCAR-3 14.9 µM | OVCAR-5 14.7 µM | OVCAR-8 5.27 µM | RXF 393 7.8 µM | RXF 631 5.52 µM | SF-268 5.18 µM | SF-295 7.46 µM | SF-539 18.1 µM | SK-MEL-28 16.3 µM | SK-MEL-2 18.2 µM | SK-OV-3 14.9 µM | SN12C > 10 µM | SNB-19 19.3 µM | SNB-78 5.46 µM | SR 4.3 µM | SW-620 12.1 µM | TK-10 11.5 µM | U-251 > 10 µM | UACC-257 16 µM | UACC-62 5.81 µM | UO-31 12.9 µM

IC[P+]1(c2ccccc2)CCCC1
active: XF498 < 0.01 µM
inactive: 786-0 > 100 µM | A498 23.8 µM | A549 28.7 µM | ACHN 82.4 µM | CCRF-CEM 54.2 µM | COLO 205 14 µM | DLD-1 52.2 µM | DMS-114 9.25 µM | DMS-273 18.7 µM | EKVX 16.7 µM | HCC 2998 > 100 µM | HCT-116 49.8 µM | HL-60 45.1 µM | HOP-18 58.7 µM | HOP-62 38.2 µM | HT-29 37.3 µM | IGROV-1 > 100 µM | K562 35.9 µM | KM-20L2 26.2 µM | KM12 32.5 µM | LOX IMVI 26.7 µM | LXFL 529 29.6 µM | M14 46.5 µM | M19-MEL 21.3 µM | MOLT-4 72.9 µM | Malme-3M 44.5 µM | NCI-H226 24.2 µM | NCI-H23 39.4 µM | NCI-H460 31.9 µM | NCI-H522 8.36 µM | OVCAR-3 43 µM | OVCAR-5 > 100 µM | OVCAR-8 32.4 µM | RPMI-8226 29.8 µM | RXF 393 76.7 µM | SF-295 40.1 µM | SF-539 45.3 µM | SK-MEL-28 50 µM | SK-MEL-2 > 100 µM | SK-MEL-5 19.1 µM | SK-OV-3 > 100 µM | SN12C 14.3 µM | SNB-19 59.6 µM | SNB-75 26.2 µM | SNB-78 > 100 µM | SR 33.4 µM | SW-620 > 100 µM | TK-10 47.3 µM | U-251 12.8 µM | UACC-257 52.4 µM | UACC-62 > 100 µM | UO-31 > 100 µM
4.15 µM: HCT-15

O=[N+]([O-])c1ccc(-n2nnc(C3=NCCN3)c2-c2ccccc2)cc1
inactive: 786-0 > 100 µM | A498 > 100 µM | A549 > 100 µM | ACHN > 100 µM | CAKI-1 > 100 µM | CCRF-CEM > 100 µM | COLO 205 > 100 µM | DLD-1 > 100 µM | DMS-114 > 100 µM | DMS-273 > 100 µM | EKVX > 100 µM | HCC 2998 > 100 µM | HCT-116 > 100 µM | HL-60 > 100 µM | HOP-18 > 100 µM | HOP-62 > 100 µM | HOP-92 > 100 µM | HT-29 > 100 µM | IGROV-1 > 100 µM | K562 > 100 µM | KM-20L2 > 100 µM | KM12 > 100 µM | LOX IMVI > 100 µM | LXFL 529 > 100 µM | M14 > 100 µM | M19-MEL > 100 µM | MOLT-4 > 100 µM | Malme-3M > 100 µM | NCI-H226 > 100 µM | NCI-H23 > 100 µM | NCI-H460 > 100 µM | NCI-H522 > 100 µM | OVCAR-3 > 100 µM | OVCAR-4 > 100 µM | OVCAR-5 > 100 µM | OVCAR-8 > 100 µM | RPMI-8226 > 100 µM | RXF 393 > 100 µM | SF-268 > 100 µM | SF-295 > 100 µM | SF-539 > 100 µM | SK-MEL-28 > 100 µM | SK-MEL-2 > 100 µM | SK-MEL-5 > 100 µM | SK-OV-3 > 100 µM | SN12C > 100 µM | SNB-19 > 100 µM | SNB-75 > 100 µM | SNB-78 > 100 µM | SR > 100 µM | SW-620 > 100 µM | TK-10 > 100 µM | U-251 > 100 µM | UACC-257 > 100 µM | UACC-62 > 100 µM | UO-31 > 100 µM | XF498 > 100 µM
> 100 µM: HCT-15

[N-]=[N+]=NC(CI)c1cn([C@H]2C[C@H](O)[C@@H](CO)O2)c(=O)[nH]c1=O (some centres undefined)
> 100 µM: HCT-15
inactive: 786-0 63.2 µM | A549 41.5 µM | ACHN > 100 µM | CAKI-1 > 100 µM | CCRF-CEM > 100 µM | COLO 205 > 100 µM | DLD-1 > 100 µM | DMS-114 56 µM | DMS-273 > 100 µM | EKVX > 100 µM | HCC 2998 85.1 µM | HCT-116 > 100 µM | HL-60 54.1 µM | HOP-18 2.92 µM | HOP-62 > 100 µM | HOP-92 > 100 µM | HT-29 > 100 µM | IGROV-1 > 100 µM | K562 83.9 µM | KM-20L2 > 100 µM | KM12 > 100 µM | LOX IMVI > 100 µM | LXFL 529 > 100 µM | M14 > 100 µM | M19-MEL > 100 µM | MOLT-4 > 100 µM | Malme-3M > 100 µM | NCI-H226 > 100 µM | NCI-H23 90.4 µM | NCI-H460 29.8 µM | NCI-H522 > 100 µM | OVCAR-3 > 100 µM | OVCAR-5 > 100 µM | OVCAR-8 > 100 µM | RPMI-8226 51.5 µM | RXF 393 > 100 µM | SF-295 > 100 µM | SF-539 > 100 µM | SK-MEL-28 > 100 µM | SK-MEL-2 > 100 µM | SK-MEL-5 > 100 µM | SK-OV-3 > 100 µM | SN12C > 100 µM | SNB-19 > 100 µM | SNB-75 > 100 µM | SNB-78 > 100 µM | SR > 100 µM | SW-620 > 100 µM | TK-10 > 100 µM | U-251 > 100 µM | UACC-62 > 100 µM | UO-31 > 100 µM | XF498 80.2 µM

O=C(NP(=O)(N1CC1)N1CC1)c1cc(I)ccc1I [DIIODBENZOTEPH]
inactive: 786-0 21.9 µM | A498 64.4 µM | A549 23.6 µM | ACHN 6.05 µM | BT-549 53.7 µM | CAKI-1 > 22.3 µM | CCRF-CEM 4.86 µM | COLO 205 > 91.4 µM | DLD-1 > 100 µM | DMS-114 19.9 µM | DMS-273 11.6 µM | DU-145 15.6 µM | EKVX 78 µM | HCC 2998 > 67.9 µM | HCT-116 40.3 µM | HL-60 5.06 µM | HOP-18 > 92.3 µM | HOP-62 19.1 µM | HOP-92 59.7 µM | HT-29 62.7 µM | Hs-578T 98.9 µM | IGROV-1 40.6 µM | K562 59 µM | KM-20L2 > 100 µM | KM12 > 91.2 µM | LOX IMVI 12.4 µM | LXFL 529 > 100 µM | M14 34.8 µM | M19-MEL 58.9 µM | MCF7 38 µM | MDA-MB-231 > 100 µM | MDA-MB-435 32.3 µM | MDA-N > 73.6 µM | MOLT-4 5.58 µM | Malme-3M 50.4 µM | NCI-H226 46.1 µM | NCI-H23 10.9 µM | NCI-H460 3.72 µM | NCI-H522 27.3 µM | NCI/ADR-RES 23.3 µM | OVCAR-3 36.6 µM | OVCAR-4 77.3 µM | OVCAR-5 > 84.1 µM | OVCAR-8 31.2 µM | PC-3 > 67.3 µM | RPMI-8226 52.7 µM | RXF 393 34.6 µM | SF-268 27.3 µM | SF-295 30 µM | SF-539 23.9 µM | SK-MEL-28 > 95.3 µM | SK-MEL-2 61 µM | SK-MEL-5 43.1 µM | SK-OV-3 25.6 µM | SN12C 26.8 µM | SNB-19 53.7 µM | SNB-75 37.9 µM | SNB-78 > 100 µM | SW-620 67.5 µM | T47D 22.9 µM | TK-10 > 100 µM | U-251 24.6 µM | UACC-257 > 64.3 µM | UACC-62 10.4 µM | UO-31 28.1 µM | XF498 > 52.6 µM
69.3 µM: HCT-15
